System: α-tubulin, β-tubulin, γ-tubulin, caspase-9, caspase-3, VEGF in UM-UC-3 cells
Assay: Western blotting in UM-UC-3 cells (tubulins, caspases, VEGF)
Format: cell-based, human
Conditions: 24 h
Protocol: FIG. 4. Effect of AITC on mitosis, tubulin expression and apoptosis in human bladder cancer UM-UC-3 cells. Cells were treated with vehicle or AITC for 24 h (each numerical value is mean±SD). A. Flow cytometry analysis for cell cycle arrest. B. Wright-Giemsa staining for counting mitotic figures. Arrows point to cells in mitosis or mitotic catastrophe. C. Immunofluorescent staining of microtubules (green color) and DNA staining with DAPI (blue color). D. Western blotting of tubulins (GAPDH as a loading control). E. Loss of mitochondrial transmembrane potential (Δψm) measured by flow cytometry. F. Western blotting of caspase-9 and caspase-3 (GAPDH as a loading control). G. Apoptotic cells (TUNEL cells) measured by flow cytometry. Cells in F and G were co-treated with or without 20 microM Z-LEHD-FMK (a caspase-9 inhibitor).
FIG. 8. Inhibition of bladder cancer development by MSP-1. Female F344 rats were inoculated with AY-27 cells intravesically via a urethra catheter to initiate development of orthotopic bladder cancer. Oral administration of MSP-1 of vehicle (water) once daily was started 1 day after cancer cell inoculation and ended 3 weeks later. The number of rats per group varied from 11-29. A. Initial (□) and final (▪) body weights. B. Tumor weight was calculated by subtracting the average normal bladder weight from tumor-bearing bladder weight. *P<0.05. Each value in A and B is mean±SEM. C. Percentage of bladder where the tumor invaded the muscle tissue. D. The effects of MSP-1 on selected anticancer targets in UM-UC-3 cells (in vitro), AY-27 cells (in vitro) and AY-27 tumors (in vivo). The cells were treated with MSP-1 at the sinigrin concentrations of 13 and 26 microM for 24 h. The bladder tumors were removed from rats treated with MSP-1 at the sinigrin doses of 9 or 90 micromols/kg once daily for 3 weeks, started 1 day after cancer cell inoculation. Cell lysates and tumor homogenates were analyzed by Western blotting, using GAPDH as a loading control.
Western blot analysis. […]

C=CCN=C=S [AITC, allyl isothiocyanate]
caspase-9 and caspase-3 activation: activation of both caspase-9 and caspase-3
α-tubulin and β-tubulin levels: significantly down regulated

From US9486434B2, “Method for delivery and use of isothiocyanates for prophylaxis and/or therapy of bladder cancer” (Health Research Inc., priority 2010, dated 2016)
